Source: patent US20160045505A1, “COMPOUNDS AND COMPOSITIONS FOR THE TREATMENT OF PARASITIC DISEASES” (NOVARTIS AG, priority 2013, published 2016)
Read-outs that look alike come from different tables or passages of the source.

How the values were obtained:
[1] = test system: Trypanosoma cruzi amastigotes (Tulahuen strain expressing Lac-Z) cultured in 3T3 fibroblast cells; test: microbe, parasite or virus in culture; type: cell-based; conditions: Trypanosoma cruzi, TULAHUEN, Fibroblast, T. cruzi amastigotes in 3T3 fibroblast cells, read-out: T cruzi EC50
[2] = test system: Leishmania donovani axenic amastigote parasites; test: Leishmania donovani axenic amastigote proliferation assay (Cell TiterGlo luminescence, 2 day incubation); type: cell-based; conditions: Leishmania donovani, read-out: L. donovani amastigotes EC50
[3] = test system: L. donovani HU3 strain in mouse peritoneal macrophages; test: Assay for proliferation of Leishmania parasites in infected mouse peritoneal macrophages (SybrGreen staining, high-content imaging, 5 days); type: cell-based, Leishmania donovani; conditions: Leishmania donovani, Peritoneal macrophage, L. donovani in mouse peritoneal macrophages, read-out: L. donovani Macrophage EC50
[4] = test system: Trypanosoma brucei Lister 427 strain, bloodstream form; test: Assay for proliferation of kinetoplastid parasite Trypanosoma brucei (Cell Titer Glo, 48 hours); type: cell-based; conditions: Trypanosoma brucei, read-out: T. brucei EC50
Procedure, shortened: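 Bloodstream-form T. brucei Lister 427 in HMI-9 medium was exposed to compound (DMSO vehicle) for 48 hours at 37° C, 5% CO2. Parasite growth was read as ATP by CellTiter-Glo luminescence, with EC50 calculated from percent inhibition.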

[5] = T. brucei Lister 427 bloodstream form
[6] = axenic amastigotes, inhibition of proliferation
[7] = T. brucei Lister 427 bloodstream form, inhibition of proliferation

SMILES | EC50 [1] [µM] | EC50 ([2]; L. donovani axenic amastigotes) [µM] | EC50 [3] [µM] | EC50 [4, 5] [µM] | EC50 ([1]; inhibition of proliferation) [µM] | EC50 [2, 6] [µM] | EC50 ([3]; inhibition of proliferation) [µM] | EC50 [4, 7] [µM] | EC50 [4] [µM]
CCCNc1cnc2nc(-c3cc(NC(=O)N4CCCC4)ccc3F)cn2c1 [Compound 474] | 0.478 | 0.292 | 1.11 | 0.203 |  |  |  |  | 
Cc1nc(C)c(C(=O)Nc2ccc(F)c(-c3cn4cc(-c5ccccc5S(C)(=O)=O)cnc4n3)c2)o1 [Compound 397] | 0.2 | 0.337 | 0.448 | 0.068 |  |  |  |  | 
Cc1nc(C)c(C(=O)Nc2ccc(F)c(-c3cn4cc(NC(=O)C5(C)CCCO5)cnc4n3)c2)o1 (centres unmarked) [Compound 193] |  |  |  |  | 1.09 | 0.339 | 0.717 | 0.201 | 
Cc1nc(C)c(C(=O)Nc2ccc(F)c(-c3cn4cc(OC(C)C)cnc4n3)c2)o1 [Compound 608, N-(4-fluoro-3-(6-isopropoxyimidazo[1,2-a]pyrimidin-2-yl)phenyl)-2,4-dimethyloxazole-5-carboxamide] | 0.132 | 0.127 | 0.456 | 0.159 |  |  |  |  | 
Cc1nc(C)c(C(=O)Nc2ccc(F)c(-c3cn4cc(N(C)C)cnc4n3)c2)o1 [Compound 470] | 0.148 | 0.252 | 0.689 | 0.159 |  |  |  |  | 
Cc1nc(C)c(C(=O)Nc2ccc(F)c(-c3cn4cc(-c5cn(C(C)C)cn5)cnc4n3)c2)o1 [Compound 428] | 0.451 | 0.1 | 0.291 | 0.161 |  |  |  |  | 
CCn1ccnc1C(=O)Nc1cnc2nc(-c3cc(NC(=O)N4CCCC4)ccc3F)cn2c1 [Compound 142] |  |  |  |  | 0.179 | 0.063 | 0.506 | 0.121 | 
CC(C)OC(=O)Nc1cnc2nc(-c3cc(NC(=O)c4nccs4)ccc3Cl)cn2c1 [Compound 243] |  |  |  |  | 0.15 | 0.78 | 2.61 | 0.369 | 
CC1COC(Nc2ccc(F)c(-c3cn4cc(NC(=O)OC(C)C)cnc4n3)c2)=N1 (centres unmarked) [Compound 502] | 11 | > 25 | 16 | 6.73 |  |  |  |  | 
CC(C)OC(=O)Nc1cnc2nc(-c3cc(NC(=O)N(C)CC(F)(F)F)ccc3Cl)cn2c1 [Compound 255] |  |  |  |  | 0.329 | 0.364 | 0.502 | 0.122 | 
Cc1ccc(C(=O)Nc2ccc(F)c(-c3cn4cc(NC(=O)OC(C)C)cnc4n3)c2)s1 [Compound 88] |  |  |  |  | 1.17 | 5.37 | 19.7 |  | 1.18
CC(C)OC(=O)Nc1cnc2nc(-c3cc(NC(=O)N4CCOCC4)ccc3Cl)cn2c1 [Compound 216] |  |  |  |  | 11.5 | 4.43 | > 50 | 3.13 | 
CC(C)OC(=O)Nc1cnc2nc(-c3cc(NC(=O)c4ccc(Cl)o4)ccc3Cl)cn2c1 [Compound 44] |  |  |  |  | 0.047 | 0.121 | 0.193 | 0.039 | 
CC(C)OC(=O)N(C)c1cnc2nc(-c3cc(N(C)C(=O)c4ccc(Cl)o4)ccc3F)cn2c1 [Compound 551, isopropyl (2-(5-(5-chloro-N-methylfuran-2-carboxamido)-2-fluorophenyl)imidazo[1,2-a]pyrimidin-6-yl)(methyl)carbamate] | 3.28 | 11 | 6.94 | 9.32 |  |  |  |  | 
Cc1nc(C)c(C(=O)Nc2ccc(F)c(-c3cn4cc(-c5cnn(C)c5)cnc4n3)c2)o1 [Compound 389] | 0.254 | 0.097 | 0.33 | 0.158 |  |  |  |  | 
CC(C)CNC(=O)Nc1ccc(Cl)c(-c2cn3cc(NC(=O)OC(C)C)cnc3n2)c1 [Compound 263] |  |  |  |  | 1.32 | 1.74 | 3.53 | 1.1 | 
CC(C)OC(=O)Nc1cnc2nc(-c3cc(NC(=O)NC4CCC4)ccc3Cl)cn2c1 [Compound 269] |  |  |  |  | 4.16 | 9.59 | 15.1 | 3.57 | 
Cc1ncc(C(=O)Nc2ccc(Cl)c(-c3cn4cc(NC(=O)OC(C)C)cnc4n3)c2)o1 [Compound 47] |  |  |  |  | 0.442 | 0.077 | 0.22 | 0.128 | 
Cc1nc(C)c(C(=O)Nc2ccc(F)c(-c3cn4cc(NC(=O)C5CCN(C(C)C)CC5)cnc4n3)c2)o1 [Compound 194] |  |  |  |  | > 20 | > 25 | > 50 | 29.8 | 
Cc1ccc(C(=O)Nc2ccc(F)c(-c3cn4cc(NC(=O)OC(C)C)cnc4n3)c2)o1 [Compound 80] |  |  |  |  | 0.063 | 0.089 | 0.244 | 0.059 | 
Cc1nnc(C(=O)Nc2ccc(Cl)c(-c3cn4cc(NC(=O)OC(C)C)cnc4n3)c2)o1 [Compound 527] | > 20 | > 25 | 5.77 | > 50 |  |  |  |  | 

SMILES | EC50 [1] [µM] | EC50 ([2]; L. donovani axenic amastigotes) [µM] | EC50 [3] [µM] | EC50 [4, 5] [µM] | EC50 ([1]; inhibition of proliferation) [µM] | EC50 [2, 6] [µM] | EC50 ([3]; inhibition of proliferation) [µM] | EC50 [4, 7] [µM] | EC50 [4] [µM]
COC(=O)COc1cnc2nc(-c3cc(NC(=O)c4oc(C)nc4C)ccc3F)cn2c1 [Compound 609] | > 20 | 0.835 | 5.97 | 1.05 |  |  |  |  | 
COC1CCC(C(=O)Nc2cnc3nc(-c4cc(NC(=O)c5oc(C)nc5C)ccc4F)cn3c2)CC1 (centres unmarked) [Compound 169] |  |  |  |  | 3.87 | 0.7 | 2.42 | 0.523 | 
CC(C)CNc1cnc2nc(-c3cc(NC(=O)N4CCCC4)ccc3F)cn2c1 [Compound 472] | 0.297 | 0.21 | 0.737 | 0.058 |  |  |  |  | 
Cc1nc(C)c(C(=O)Nc2ccc(F)c(-c3cn4cc(-c5cn(C)cn5)cnc4n3)c2)o1 [Compound 426, N-(4-fluoro-3-(6-(1-methyl-1H-imidazol-4-yl)imidazo[1,2-a]pyrimidin-2-yl)phenyl)-2,4-dimethyloxazole-5-carboxamide] | 0.124 | 0.016 | 0.182 | 0.378 |  |  |  |  | 
Cc1nc(C)c(C(=O)Nc2ccc(F)c(-c3cn4cc(NC(=O)C5(C)CC(F)(F)C5)cnc4n3)c2)o1 [Compound 118] |  |  |  |  | 3.38 | 0.606 | 2.05 | 0.442 | 
Cc1nc(C)c(C(=O)Nc2ccc(F)c(-c3cn4cc(NC(=O)C5(C)CC5)cnc4n3)c2)o1 [Compound 115] |  |  |  |  | 0.41 | 0.073 | 0.093 | 0.054 | 
CC(C)OC(=O)Nc1cnc2nc(-c3cc(NC(=O)c4cnco4)ccc3F)cn2c1 [Compound 78] |  |  |  |  | 1.91 | 0.307 | 6.41 | 0.553 | 
Cc1nc(C)c(C(=O)N(c2ccc(F)c(-c3cn4cc(OC(C)C)cnc4n3)c2)C(C)C)o1 [Compound 612] | 3.81 | 9.4 | 1.06 | 12.4 |  |  |  |  | 
CCOCC(=O)Nc1cnc2nc(-c3cc(NC(=O)N4CCCC4)ccc3F)cn2c1 [Compound 138] |  |  |  |  | 1.95 | 0.549 | 3.88 | 0.127 | 
CC(C)OC(=O)Nc1cnc2nc(-c3cc(NC(=O)/C=C/CN(C)C)ccc3F)cn2c1 [Compound 103] |  |  |  |  | 10.8 | 2.15 | 9.86 | 5.62 | 
Cc1nc(C)c(C(=O)Nc2ccc(F)c(-c3cn4cc(-c5ccc(S(C)(=O)=O)cc5F)cnc4n3)c2)o1 [Compound 362] |  |  |  |  | > 20 | 0.403 | > 34.4 | 0.345 | 
CCN(CC)c1cnc2nc(-c3cc(NC(=O)c4oc(C)nc4C)ccc3F)cn2c1 [Compound 471] | 0.147 | 0.601 | 0.637 | 0.159 |  |  |  |  | 
CC(=O)c1ccc(-c2cnc3nc(-c4cc(NC(=O)c5oc(C)nc5C)ccc4F)cn3c2)cn1 [Compound 437] | 0.682 | 0.08 | 1.25 | 0.403 |  |  |  |  | 
CC(C)OC(=O)Nc1cnc2nc(-c3cc(NC(=O)c4nccs4)ccc3F)cn2c1 [Compound 242] |  |  |  |  | 0.198 | 0.687 | 2.2 | 0.477 | 
CCn1ccnc1C(=O)Nc1cnc2nc(-c3cc(NC(=O)c4oc(C)nc4C)ccc3F)cn2c1 [Compound 117] |  |  |  |  | > 20 | 0.125 | > 50 | 0.166 | 
Cc1nc(C)c(C(=O)Nc2ccc(F)c(-c3cn4cc(NCc5c[nH]cn5)cnc4n3)c2)o1 [Compound 480] | > 20 | > 22.3 | > 50 | 8.42 |  |  |  |  | 
Cc1nc(C)c(C(=O)Nc2ccc(F)c(-c3cn4cc(-c5ccccc5F)cnc4n3)c2)o1 [Compound 391] | 0.016 | 0.056 | 0.129 | 0.053 |  |  |  |  | 
Cc1nc(C(=O)Nc2ccc(Cl)c(-c3cn4cc(NC(=O)OC(C)C)cnc4n3)c2)c(C)o1 [Compound 46] |  |  |  |  | 0.262 | 1.39 | 4.99 | 3.01 | 
CC1=C(C(=O)Nc2cnc3nc(-c4cc(NC(=O)c5oc(C)nc5C)ccc4F)cn3c2)OCCO1 [Compound 116] |  |  |  |  | 3.42 | 0.096 | 0.484 | 0.153 | 
O=C(Nc1ccc(Cl)c(-c2cn3cc(C4=CCNCC4)cnc3n2)c1)N1CCCC1 [Compound 570, N-(4-chloro-3-(6-(1,2,3,6-tetrahydropyridin-4-yl)imidazo[1,2-a]pyrimidin-2-yl)phenyl)pyrrolidine-1-carboxamide] | 1.99 | 1.82 | 13.6 | 0.248 |  |  |  |  | 
